Values of other authors, collected in patent US12596089B2, “Devices, systems, and methods for antimicrobial susceptibility testing” (Avails Medical, Inc., priority 2022, dated 2026).

Columns and labels:
[1] = system: CDC-650 strain of E. coli; conditions: stated as known
[2] = system: CDC-846 strain of E. coli; conditions: stated as known

SMILES: CO/N=C(\C(=O)N[C@@H]1C(=O)N2C(C(=O)O)=C(CSc3nc(=O)c(=O)[nH]n3C)CS[C@H]12)c1csc(N)n1 [ceftriaxone]
- susceptibility of the bacteria to the anti-infective [1]: highly susceptible
- susceptibility of the bacteria to the anti-infective [2]: resistant
